Measurements reported in US20120107248A1, “IMAGING GASTROINTESTINAL VOLUMES AND MOTILITY” (MAYO FOUNDATION FOR MEDICAL EDUCATION AND RESEARCH, priority 2009, published 2012).

What was measured:
[1] = in vivo; cited from earlier work
gastric wall = assay: Abdominal MRI studies in mice with automated segmentation (Example 5); assay type: in vivo
Experimental: Ten abdominal MRI studies in mice were performed under three conditions in sequential order: fasting pre-contrast, fasting post-contrast, and postprandial post-contrast (after feeding with 80 μL egg yolk). Five studies each were conducted with a commercially-available gadolinium contrast agent (gadopentetic acid, Magnevist™) and with Gd-DOTA-3COOH-S-Pantoprazole. Mice were administered 2.5 mg of Magnevist or Gd-DOTA-3COOH-S-Pantoprazole in a volume of 10 μL intravenously. […] In these images the gastric lumen is marked “s.” The images were analyzed by standard techniques (i.e., full-width-half-maximum method). Following administration of Magnevist, the uptake signal increased diffusely, as shown by the arrow. […] In the Gd-DOTA-3COOH-S-Pantoprazole study, the algorithm only identified the stomach boundary after contrast, i.e., fasting and postprandial images, but the conjugate was capable of discriminating the stomach wall from its contents and surrounding tissues. Comparison of gastric wall signal intensity over time after intravenous Magnevist and Gd-DOTA-3COOH-S-Pantoprazole is shown in FIG. 9. Data were sampled at 120 equidistant points around the gastric wall.

Row | SMILES | blood clearance time [1] | splenic uptake / gastro-splenic boundary (gastric wall; 2.5 mg intravenously, FIG. 7) | gastric wall signal and automated segmentation of the gastric outline (gastric wall; 2.5 mg intravenously, full-width-half-maximum method, FIG. 6) | gastric wall signal intensity over time: difference between fasting post contrast and postprandial post contrast images (gastric wall; 120 equidistant points around the gastric wall, FIG. 9) | gastric wall thickness measurements (gastric wall; segmentation algorithm, FIG. 7 and FIG. 8)
1 | O=C([O-])CN(CCN(CC(=O)[O-])CC(=O)O)CCN(CC(=O)[O-])CC(=O)O.[Gd+3] [Gd(DTPA), gadolinium diethylenetriaminepentaacetate] | approximately 2 minutes | – | – | – | –
2 | CNC[C@H](O)[C@@H](O)[C@H](O)[C@H](O)CO.CNC[C@H](O)[C@@H](O)[C@H](O)[C@H](O)CO.O=C([O-])CN(CCN(CC(=O)[O-])CC(=O)O)CCN(CC(=O)[O-])CC(=O)O.[Gd+3] [Magnevist, gadopentetic acid, reference compound] | – | marked splenic uptake | could not accurately identify the gastric outline | higher difference | overestimates stomach wall thickness
